Assay results as given in patent US20080039437A1, “New Pyridine Analogues III” (ASTRAZENECA AB, priority 2006, published 2008).

Target: T1, P2Y12 receptor (Homo sapiens, UniProt Q9H244)
T1 construct: expressed in transfected cells; host or cells: CHO cells (membranes)
Assay: Functional inhibition of 2-Me-S-ADP induced P2Y12 signalling (35S-GTPγS, cell membranes)
Format: biochemical
Conditions: membranes from P2Y12 transfected CHO-cells, EC80 of agonist 2-methyl-thio-adenosine diphosphate, 30° C., 45 min
Protocol: Functional inhibition of the P2Y12 receptor can be measured by in vitro assays using cell membranes from P2Y12 transfected CHO-cells, the methodology is indicated below.
Functional inhibition of 2-Me-S-ADP induced P2Y12 signalling: 5 μg of membranes were diluted in 200 μl of 200 mM NaCl, 1 mM MgCl2, 50 mM HEPES (pH 7.4), 0.01% BSA, 30 μg/ml saponin and 10 μM GDP. To this was added an EC80 concentration of agonist (2-methyl-thio-adenosine diphosphate), the required concentration of test compound and 0.1 μCi ^35S-GTPγS. The reaction was allowed to proceed at 30° C. for 45 min. Samples were then transferred on to GF/B filters using a cell harvester and washed with wash buffer (50 mM Tris (pH 7.4), 5 mM MgCl2, 50 mM NaCl). Filters were then covered with scintillant and counted for the amount of ^35S-GTPγS retained by the filter. Maximum activity was that determined in the presence of the agonist and minimum activity in the absence of the agonist following subtraction of the value determined for non-specific activity. The effect of compounds at various concentrations was plotted according to the equation y=A+((B−A)/(1+((C/x)ˆD))) and IC50 estimated where
A is the bottom plateau of the curve i.e. the final minimum y value
B is the top of the plateau of the curve i.e. the final maximum y value
C is the x value at the middle of the curve. This represents the log EC50 value when A+B=100 […]

T1 sequence (Q9H244 whole entry): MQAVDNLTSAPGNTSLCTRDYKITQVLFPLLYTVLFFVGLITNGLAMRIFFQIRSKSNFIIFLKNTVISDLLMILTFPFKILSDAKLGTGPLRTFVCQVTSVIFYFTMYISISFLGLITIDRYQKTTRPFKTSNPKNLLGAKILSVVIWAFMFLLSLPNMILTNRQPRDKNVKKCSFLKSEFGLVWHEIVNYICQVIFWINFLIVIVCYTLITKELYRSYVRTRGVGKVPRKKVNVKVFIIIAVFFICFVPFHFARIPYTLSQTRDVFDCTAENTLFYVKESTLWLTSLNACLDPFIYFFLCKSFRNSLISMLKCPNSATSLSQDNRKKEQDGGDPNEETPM

SMILES | IC50 [µM]
CCCCS(=O)(=O)NC(=O)C1CCN(c2nc(C(F)F)c(C(=O)OCC)cc2C#N)CC1 [Example 41, Ethyl 6-(4-{[(butylsulfonyl)amino]carbonyl}piperidin-1-yl)-5-cyano-2-(difluoromethyl)nicotinate] | 0.49
CCOC(=O)c1cc(C#N)c(N2CC(C(=O)NS(=O)(=O)CC3CCC(C)CC3)C2)nc1CF (centres unmarked) [Example 74, Ethyl 5-cyano-2-(fluoromethyl)-6-{3-[({[(4-methylcyclohexyl)methyl]sulfonyl}amino)carbonyl]azetidin-1-yl}nicotinate] | 0.27
